Results taken from US8178506B2, “Oligomeric compounds and compositions for use in modulation of small non-coding RNAs” (Regulus Therapeutics Inc., priority 2003, dated 2012).
In the oligonucleotide strings, read from the 5' end, every base follows the letter of its sugar. An asterisk marks phosphorothioate; unmarked linkages are phosphodiester. Other units and linkages are bracketed, terminal groups are in braces. A string of capitals states the bases alone. e = 2'-O-(2-methoxyethyl) (MOE); [5mC] = 5-methylcytosine; d = 2'-deoxy (DNA)

Key:
Assay type in all cases: cell-based, human
[1] = system: adipocytes; test: Triglyceride accumulation assay in adipocytes; settings: for Triglycerides: differentiating adipocytes day 10 post-induction, 24 hours after treatment
[2] = system: PPARγ; test: PPARγ mRNA expression in adipocytes (real-time PCR); settings: for PPAR-gamma mRNA: differentiating adipocytes day 10 post-induction, 24 hours after treatment
[3] = system: aP2; test: aP2 mRNA expression in adipocytes (real-time PCR); settings: for aP2 mRNA: differentiating adipocytes transfected with oligomeric compound, Table 75
[4] = system: Glut4; test: Glut4 mRNA expression in adipocytes (real-time PCR)
[5] = system: HSL; test: HSL mRNA expression in adipocytes (real-time PCR)
[6] = differentiating adipocytes transfected with oligomeric compound, Table 75
[7] = Table 20, adipocyte differentiation assay as in Example 13
[8] = Table 17, differentiating adipocytes, control = treatment with ISIS 342673
[9] = Table 18, differentiating adipocytes, control = treatment with ISIS 342673
[10] = 50 nM, differentiating adipocytes day 10 post-induction, 24 hours after treatment
[11] = 100 nM, differentiating adipocytes day 10 post-induction, 24 hours after treatment
[12] = 200 nM, differentiating adipocytes day 10 post-induction, 24 hours after treatment
[13] = 300 nM, differentiating adipocytes day 10 post-induction, 24 hours after treatment

| Substance | TG (triglyceride accumulation) [1, 6] | PPAR gamma mRNA [2, 6] | aP2 mRNA [3] | GLUT4 mRNA [4, 6] | HSL mRNA [5, 6] | TG (triglyceride accumulation) [1, 8] | PPAR gamma mRNA [2, 8] | AP2 mRNA [3, 8] | GLUT4 mRNA [4, 8] | HSL mRNA [5, 8] | TG (triglyceride accumulation) [1, 9] | PPAR gamma mRNA [2, 9] | AP2 mRNA [3, 9] | GLUT4 mRNA [4, 9] | HSL mRNA [5, 9] | further results |
| --- | --- | --- | --- | --- | --- | --- | --- | --- | --- | --- | --- | --- | --- | --- | --- | --- |
| 341800 (antisense AAGCCCAAAAGGAGAAUUCUUUG; all 2'-MOE, all phosphorothioate, methylation of C and T or U not given here) [compound 341800] | 18 percentage of untreated control (UTC) | 61 percentage of untreated control (UTC) | 50 percentage of untreated control (UTC) | 28 percentage of untreated control (UTC) | 42 percentage of untreated control (UTC) |  |  |  |  |  |  |  |  |  |  |  |
| 340927 (antisense eT*eG*eA*eG*e[5mC]*dT*dA*d[5mC]*dA*dG*dT*dG*d[5mC]*dT*dT*e[5mC]*eA*eT*e[5mC]*eT*e[5mC]*eA) [compound 340927] |  |  |  |  |  |  |  |  |  |  |  |  |  |  |  | TG [1, 7]: 0.65; PPAR gamma [2, 7]: 0.36; AP2 [3, 7]: 0.77; Glut4 [4, 7]: 0.54; HSL [5, 7]: 0.73 |
| 328129 (antisense eA*eG*e[5mC]*e[5mC]*eT*e[5mC]*e[5mC]*eT*eT*e[5mC]*eT*eT*e[5mC]*eT*e[5mC]*eG*eT*eA*e[5mC]*eT*eA) [compound 328129] | 19 percentage of untreated control (UTC) | 59 percentage of untreated control (UTC) | 54 percentage of untreated control (UTC) | 36 percentage of untreated control (UTC) | 34 percentage of untreated control (UTC) | 53.8 percentage of control | 71.8 percentage of control | 67.6 percentage of control | 60.0 percentage of control | 56.5 percentage of control |  |  |  |  |  |  |
| 328105 (antisense e[5mC]*e[5mC]*eT*e[5mC]*eA*eA*eT*eT*eA*eT*eT*eG*eG*eA*eA*eA*eT*e[5mC]*eA*e[5mC]*eA) [compound 328105] | 82 percentage of untreated control (UTC) | 85 percentage of untreated control (UTC) | 102 percentage of untreated control (UTC) | 75 percentage of untreated control (UTC) | 95 percentage of untreated control (UTC) |  |  |  |  |  | 93.1 percentage of control | 93.3 percentage of control | 88.2 percentage of control | 94.2 percentage of control | 94.2 percentage of control |  |
| 342673 (antisense eA*eG*eA*e[5mC]*eT*eA*eG*e[5mC]*eG*eG*eT*eA*eT*e[5mC]*eT*eT*eT*eA*eT*e[5mC]*e[5mC]*e[5mC]) [compound 342673] |  |  |  |  |  | 100.0 percentage of control | 100.0 percentage of control | 100.0 percentage of control | 100.0 percentage of control | 100.0 percentage of control | 100 percentage of control | 100 percentage of control | 100 percentage of control | 100 percentage of control | 100 percentage of control | Triglycerides ([1]; 50 nM): 94.2 % UTC; Triglycerides ([1]; 100 nM): 105.3 % UTC; Triglycerides ([1]; 200 nM): 98.3 % UTC; Triglycerides ([1]; 300 nM): 108.2 % UTC; PPAR-gamma mRNA ([2]; 50 nM): 77.5 % UTC; PPAR-gamma mRNA ([2]; 100 nM): 89.9 % UTC; PPAR-gamma mRNA ([2]; 200 nM): 94.6 % UTC; PPAR-gamma mRNA ([2]; 300 nM): 85.8 % UTC; AP2 mRNA [3, 10]: 82.4 % UTC; AP2 mRNA [3, 11]: 90.3 % UTC; AP2 mRNA [3, 12]: 81.1 % UTC; AP2 mRNA [3, 13]: 70.9 % UTC; GLUT4 mRNA [4, 10]: 94.9 % UTC; GLUT4 mRNA [4, 11]: 90.7 % UTC; GLUT4 mRNA [4, 12]: 97.6 % UTC; GLUT4 mRNA [4, 13]: 102.7 % UTC; HSL mRNA [5, 10]: 92.0 % UTC; HSL mRNA [5, 11]: 95.6 % UTC; HSL mRNA [5, 12]: 97.3 % UTC; HSL mRNA [5, 13]: 85.2 % UTC |
